Patent US20250331519A1, “HERBICIDAL DERIVATIVES” (SYNGENTA CROP PROTECTION AG, priority 2022, published 2025)

Experiments:
Assay type in all cases: in vivo
[1] = system: Amaranthus retoflexus (AMARE); experiment: Pre-emergence herbicidal glasshouse test; settings: evaluated after 13 days, five-point scale
[2] = system: Ipomoea hederacea (IPOHE); experiment: Pre-emergence herbicidal glasshouse test; settings: evaluated after 13 days, five-point scale
[3] = system: Setaria faberi (SETFA); experiment: Pre-emergence herbicidal glasshouse test; settings: evaluated after 13 days, five-point scale
[4] = system: Echinochloa crus-galli (ECHCG); experiment: Pre-emergence herbicidal glasshouse test; settings: evaluated after 13 days, five-point scale
[5] = system: Amaranthus retoflexus (AMARE); experiment: Post-emergence herbicidal glasshouse test; settings: sprayed after 8 days cultivation, evaluated after 13 days, five-point scale
Experimental: (§1) Seeds of a variety of test species are sown in standard soil in pots (Ipomoea hederacea (IPOHE), Setaria faberi (SETFA), Zea mays (ZEAMX), Echinochloa crus-galli (ECHCG), Amaranthus palmeri (AMAPA), Amaranthus retoflexus (AMARE)). After 8 days cultivation under controlled conditions in a glasshouse (at 24° C./16° C., day/night; 14 hours light; 65% humidity), the plants are sprayed with an aqueous spray solution derived from the formulation of the technical active ingredient in acetone/water (50:50) solution containing 0.5% Tween 20 (polyoxyethelyene sorbitan monolaurate, CAS RN 9005-64-5). Compounds are applied at 1000 g/ha unless otherwise stated. The test plants are then grown in a glasshouse under controlled conditions in a glasshouse (at 24° C./16° C., day/night; 14 hours light; 65% humidity) and watered twice daily. After 13 days the test is evaluated for the percentage damage caused to the plant. The biological activities are shown in the following table on a five-point scale (5=81-100%; 4=61-80%; 3=41-60%; 2=21-40%; 1=0-20%; -=not tested).

[6] = system: Ipomoea hederacea (IPOHE); experiment: Post-emergence herbicidal glasshouse test; settings: sprayed after 8 days cultivation, evaluated after 13 days, five-point scale
Experimental: as §1

[7] = system: Echinochloa crus-galli (ECHCG); experiment: Post-emergence herbicidal glasshouse test; settings: sprayed after 8 days cultivation, evaluated after 13 days, five-point scale
Experimental: as §1

[8] = system: Setaria faberi (SETFA); experiment: Post-emergence herbicidal glasshouse test; settings: sprayed after 8 days cultivation, evaluated after 13 days, five-point scale
Experimental: as §1

[9] = system: Zea mays (ZEAMX); experiment: Post-emergence herbicidal glasshouse test; settings: sprayed after 8 days cultivation, evaluated after 13 days, five-point scale
Experimental: as §1

[10] = system: Amaranthus palmeri (AMAPA); experiment: Post-emergence herbicidal glasshouse test; settings: sprayed after 8 days cultivation, evaluated after 13 days, five-point scale
Experimental: as §1

[11] = system: Zea mays (ZEAMX); experiment: Pre-emergence herbicidal glasshouse test; settings: evaluated after 13 days, five-point scale
[12] = system: Amaranthus palmeri (AMAPA); experiment: Pre-emergence herbicidal glasshouse test; settings: evaluated after 13 days, five-point scale

Compound | percentage damage caused to the plant, IPOHE ([2]; 1000 g/ha) | percentage damage caused to the plant, SEFTA ([3]; 1000 g/ha) | percentage damage caused to the plant, ECHCG ([4]; 1000 g/ha) | percentage damage caused to the plant, IPOHE ([6]; 1000 g/ha) | percentage damage caused to the plant, ECHCG ([7]; 1000 g/ha) | percentage damage caused to the plant, SEFTA ([8]; 1000 g/ha) | percentage damage caused to the plant, ZEAMX ([9]; 1000 g/ha) | percentage damage caused to the plant, ZEAMX ([11]; 1000 g/ha) | further results
CCn1c(C)c(-n2ccc(C(F)(F)F)n2)c(=O)c(C(=O)O)c1-c1ccc(Cl)c(Cl)c1 [Compound 1, 2-(3,4-dichlorophenyl)-1-ethyl-6-methyl-4-oxo-5-[3-(trifluoromethyl)pyrazol-1-yl]pyridine-3-carboxylic acid] | 4 (4=61-80%) | 1 (1=0-20%) | 0 | 2 (2=21-40%) | 1 (1=0-20%) | 1 (1=0-20%) | 1 (1=0-20%) | 0 | percentage damage caused to the plant, AMARE ([1]; 1000 g/ha): 0; percentage damage caused to the plant, AMARE ([5]; 1000 g/ha): 2 (2=21-40%); percentage damage caused to the plant, AMAPA ([10]; 1000 g/ha): 3 (3=41-60%); percentage damage caused to the plant, AMAPA ([12]; 1000 g/ha): 0
CCn1c(C)c(-n2ccc(Cl)n2)c(=O)c(C(=O)O)c1-c1ccc(Cl)c(Cl)c1 [Compound 2, 5-(3-chloropyrazol-1-yl)-2-(3,4-dichlorophenyl)-1-ethyl-6-methyl-4-oxo-pyridine-3-carboxylic acid] | 4 (4=61-80%) | 3 (3=41-60%) | 0 | 4 (4=61-80%) | 4 (4=61-80%) | 4 (4=61-80%) | 3 (3=41-60%) | 1 (1=0-20%) | –
CCn1c(C)c(-n2cc(Cl)cn2)c(=O)c(C(=O)O)c1-c1ccc(Cl)c(Cl)c1 [Compound 3, 5-(4-chloropyrazol-1-yl)-2-(3,4-dichlorophenyl)-1-ethyl-6-methyl-4-oxo-pyridine-3-carboxylic acid] | – | – | – | – | – | – | – | – | percentage damage caused to the plant, AMARE ([1]; 250 g/Ha): 0; percentage damage caused to the plant, IPOHE ([2]; 250 g/Ha): 0; percentage damage caused to the plant, SEFTA ([3]; 250 g/Ha): 2 (2=21-40%); percentage damage caused to the plant, ECHCG ([4]; 250 g/Ha): 1 (1=0-20%); percentage damage caused to the plant, AMARE ([5]; 250 g/Ha): 3 (3=41-60%); percentage damage caused to the plant, IPOHE ([6]; 250 g/Ha): 2 (2=21-40%); percentage damage caused to the plant, ECHCG ([7]; 250 g/Ha): 3 (3=41-60%); percentage damage caused to the plant, SEFTA ([8]; 250 g/Ha): 3 (3=41-60%); percentage damage caused to the plant, ZEAMX ([9]; 250 g/Ha): 2 (2=21-40%); percentage damage caused to the plant, AMAPA ([10]; 250 g/Ha): 3 (3=41-60%); percentage damage caused to the plant, ZEAMX ([11]; 250 g/Ha): 0; percentage damage caused to the plant, AMAPA ([12]; 250 g/Ha): 0
